# From US20170202939A1, “PERSONALIZED CANCER VACCINES AND METHODS THEREFOR” (Washington University, priority 2014, published 2017)
# No end group written: not given here.
# Test system: DM6 cells expressing TMC
# Assay: processing and presentation: T cells co-cultured with DM6 expressing tandem mini-gene constructs (51Cr release, IFN-γ ELISA)
# Type: cell-based, human
# Settings: for neoantigen processing and presentation (cytotoxic activity, IFN-γ production): DM6 expressing AAS-/MUT-encoding mini-gene construct
# Text: As illustrated in FIG. 9 and FIG. 10, to determine whether vaccine-induced T cells could recognize naturally processed antigen, the melanoma tumor cell line DM6 was transduced with a multi-mini-gene construct encoding mutated (MUT) or wild-type (WT) sequences of peptides incorporated into a vaccine. FIG. 9 illustrates that each minigene consists of 21 aa encoding either the MUT or WT sequences. A scheme depicting minigene construct characteristics and a representative MUT 21-mer aa sequence encoded in construct is shown. Vaccine-induced T cells, specific for AKAP13 containing the Q285K mutation, were incubated with MUT or WT expressing DM6 cells, supernatants collected after 24 h of incubation, and IFN-γ produced by T cells was measured in supernatants by ELISA (FIG. 10).
# Tandem mini-gene constructs (TMC) were used for evaluating processing and presentation of neoantigens. All constructs were 19-21-mers encoding AAS- or WT-sequences for peptides included in vaccine. No spacers are present between sequences. A ubiquitination signal and two mini-gene controls (encoding G280 and WNV SVG9 peptides) were included to monitor processing and presentation. The amino acid sequence of a 21-mer encoding TMEM48 F169L is shown with mutated amino acid residue underlined. TMC also encoded the West Nile Virus (WNV) SVG9 (McMurtrey, C. P., et al., P.N.A.S., 105, 2981-2986, 2008) and melanoma G280 (Cox, A. L., et al., Science, 264, 716-719, 1994) antigenic determinants as controls (Table 6).
# TMC were cloned into pMX (GFP+), expressed as retrovirus and used to transfect the HLA-A*02:01+ melanoma lines DM6 (Darrow, T. L., et al., J. Immunol., 142, 3329-3335, 1989) or A375 (obtained from ATCC and mycoplasma free). TMC expressing cells were selected by sorting for GFP+ cells expressing cell surface HLA-A*02:01/SVG9 peptide complexes as detected by a T cell receptor mimic (TCRm) monoclonal antibody (Kim S., et al., J. Immunol., 184, 4423-4430, 2010). AAS- and WT-TMC reactivity with the HLA-A*02:01/SVG9 peptide complex specific TCRm monoclonal antibody validated expression of the mini-gene constructs. […] Results are shown for parental DM6 (shaded histogram) and DM6 cells expressing AAS—(dashed line) and WT (solid line) TMC constructs. A representative experiment of four performed is shown.
# DM6 cells expressing TMC were labeled with 25μCi ^51Cr for 1 h, washed and tested as targets in a standard 4 h assay using neoantigen-specific T cells as effectors (Carreno B. M. et al. 2012 J Immunol 188, 5839). DM6 cells expressing AAS—(closed rectangles) or WT—(closed circles) TMC were co-cultured with neoantigen-specific T cells at a 1:1 ratio, supernatants harvest at 16 h and IFN-γ production evaluated by ELISA as described (Carreno, B. M., et al., J Immunol., 188, 58395849, […]; plots in FIG. 38). Open triangles represent lysis obtained with parental DM6 cells. Percent specific lysis of triplicates (mean+standard deviation) is shown for each E:T ratio; spontaneous lysis was <5%. A representative experiment of two independent evaluations is shown.
# FIG. 39 illustrates that neoantigen-specific CD8 T cells were co-cultured with DM6 expressing AAS- or WT-encoding TMC for 20 h and IFN-γ production determined by ELISA. T cells cultured with parental DM6 cells are indicated as media. Mean values+/−SD of duplicates are shown. Results are representative of 2 experiments performed. […] None of the neoantigen-specific T cells recognized WT-encoding TMC (FIGS. 38 and 39). Based on these findings and the immune monitoring results (FIG. 31), the nine neoantigens identified in this study fall into three distinct antigenic determinant categories (Sercarz, E. E., et al., Annu. Rev. Imunol., 11, 729-766, 1993; Assarsson, E., et al., J. Immunol., 178, 7890-7901, 2007).
Sequence,Recognition of processed antigen,"neoantigen processing and presentation (cytotoxic activity, IFN-γ production)","neoantigen processing and presentation (cytotoxic activity, IFN-γ production) (listed as AKAP13 (Q285K))","neoantigen processing and presentation (cytotoxic activity, IFN-γ production) (listed as AKAP13 Q285K)"
CLNEYHLFL,Yes,processed and presented,–,–
IILVAVPHV,–,processed and presented,–,–
KLMNIQQKL,Yes,–,"processed, presented and recognized by vaccine-induced T cells",processed and presented
MLGEQLFPL,Yes,processed and presented,–,–
QLSCISTYV,No,not processed and presented,–,–
